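Abbreviation: GI50, concentration required for 50% inhibition of growth. Definition used: TGI = concentration required for complete inhibition of growth.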
Tests used:
Experiment in all cases: growth of human tumour cells (NCI), 384-well format
[1] = test system: ACHN renal
[2] = test system: COLO 205 colon
[3] = test system: HCT-15 colon
[4] = test system: HT29 colon
[5] = test system: M14 melanoma
[6] = test system: NCI-H322M lung
[7] = test system: RXF 393 renal
[8] = test system: SF-295 CNS
[9] = test system: SK-MEL-2 melanoma
[10] = test system: SK-MEL-5 melanoma
[11] = test system: SK-OV-3 ovarian
[12] = test system: SNB-75 CNS
[13] = test system: TK-10 renal

Structure (SMILES): N#Cc1cnc(Nc2cc(NC[C@H]3CNCCO3)c(C(F)(F)F)cn2)cn1
- GI50 [1]: 0.305 µM
- TGI [1]: 1.22 µM
- GI50 [2]: 15.3 µM
- TGI [2]: 34.4 µM
- GI50 [3]: 5.16 µM
- TGI [3]: > 65.1 µM
- GI50 [4]: 20.6 µM
- TGI [4]: > 74.7 µM
- GI50 [5]: 0.292 µM
- TGI [5]: 0.785 µM
- GI50 [6]: 9.8 µM
- TGI [6]: 32.4 µM
- GI50 [7]: 0.272 µM
- TGI [7]: 0.715 µM
- GI50 [8]: 0.946 µM
- TGI [8]: 4.12 µM
- GI50 [9]: 10.8 µM
- TGI [9]: 22.7 µM
- GI50 [10]: 2.97 µM
- TGI [10]: 16 µM
- GI50 [11]: 2.33 µM
- TGI [11]: 11 µM
- GI50 [12]: 14.7 µM
- TGI [12]: 27.9 µM
- GI50 [13]: 1.14 µM
- TGI [13]: 10.2 µM
